1 substance from patent US20130059362A1, “BIOSENSORS COMPRISING PROTEIN-BINDING DOMAINS AND FLUORESCENT PROTEINS” (SIGMA-ALDRICH CO., LLC, priority 2010, published 2013) can be followed below.

This test concerns EGFR. Nature of the test: Ligand activation of EGFR monitored by relocalization of the 2×(SH2)Grb2 biosensor in live cells. In kind it is cell-based, human. To be noted: 100 ng/mL; much less than EGF. The procedure: The nucleic acid encoding TagGFP-2×(SH2)Grb2 was cloned into a lentiviral vector. Lentiviral particles were prepared and used to stably transfect A549 cells with the TagGFP:2×(SH2)Grb2 biosensor.
The cell nuclei were labeled with 1 μM DRAQ5.
A variety of other ligands were tested for their ability to activate EGFR, as monitored by the SH2 biosensor. […] Most of the ligands were tested for activity with the TagGFP:2×(SH2)Grb2 biosensor in live cells. […]

Regarding HGF: a growth factor that binds HGFR, the “Activity (relocalization of the SH2 biosensor)” value is listed as “showed activity”.
